Laboratory results as given in US10023591B2, “Heterocyclic derivatives and use thereof” (C&C RESEARCH LABORATORIES, priority 2014, dated 2018).

Key:
STAT1 = STAT1 reporter gene assay (luciferase), U2OS stable cell line pGL4-STAT1-TA-luc, IFN-γ stimulation; type: cell-based, human; conditions: Homo sapiens, IFN-γ 50 ng/mL, 8 hours, read-out: IC50 (μM) pSTAT1
Protocol: 1-2) Experiment on the Inhibition of STAT1 Activity
A human osteosarcoma cell line (U2OS stable cell line; pGL4-STAT1-TA-luc), which contains a stably operating STAT1 promoter, was cultured in McCoy 5′A medium (Cat No. 16600, Life Technologies) containing 10% FBS (Cat No. SH30396, Thermo Scientific) and 1000 μg/mL G418 solution (Cat No. 04 727 894 001, Roche). The reporter gene assay using U2OS stable cell line was performed in McCoy 5′A medium containing 10% FBS without G-418 solution. U2OS stable cells were plated in two (2) white 96-well plates with 25,000 cells/50 pt in each well. The cells were cultured at 37° C., under 5% CO2 for 24 hours, and then treated with the compounds listed in Examples which were diluted in various concentrations. Subsequently, IFN-γ was added to each well with a final concentration of 50 ng/mL. Upon completion of the treatment with the compounds and IFN-γ, the cells were cultured at 37° C., under 5% CO2 for 8 hours. The plates were observed under microscope and drug precipitation and particular findings were investigated and recorded.
(§1) The luciferase assay and the cell viability assay were performed respectively with one of two plates. For the luciferase assay, the liquid media in the 96-well plate was removed, and then, 20 μL of passive cell lysis buffer was added to each well. After shaking the plate for 30 minutes, luciferase activities of each well were measured in a PHERAstar™ microplate reader (BMG LABTECH) using a luciferase assay system (Cat No. E1501, Promega). For the cell viability assay, the 96-well plate was placed at room temperature for 30 minutes, added with 20 μL/well of CellTiter-Glo solution (Cat No. G7573, Promega), and shaken for 10 minutes in order to measure cytotoxicity caused by the compounds listed in Examples with a PHERAstar™ microplate reader (BMG LABTECH). Wells without 0.1% DMSO and stimulation were used as a negative control and wells with 0.1% DMSO and stimulation were used as a positive control.
(§2) The results of evaluation on the inhibitory effect of the compounds listed in the Examples on the dimerization of STAT3 and STAT1 obtained via the STAT3 and STAT1 reporter gene assays are shown in Table 9 below.

STAT3 = STAT3 reporter gene assay (luciferase), LNCaP stable cell line pSTAT3-TA-luc, IL-6 stimulation; type: cell-based, human; conditions: Homo sapiens
Protocol: 1-1) Experiment on the Inhibition of STAT3 Activity
A human prostate cancer cell line (LNCaP stable cell line; plasmid pSTAT3-TA-luc), which contains a stably operating STAT3 promoter, was cultured in RPMI1640 medium (Cat No. 11875, Life Technologies) containing 10% fetal bovine serum (FBS) (Cat No. SH30396, Thermo Scientific) and 150 μg/mL G-418 solution (Cat No. 04 727 894 001, Roche). The reporter gene assay using LNCaP stable cell line was performed in RPMI1640 medium containing 3% DCC-FBS without G-418 solution. LNCaP stable cells were plated in two (2) white 96-well plates with 30,000 cells/50 μL in each well. The cells were cultured at 37° C., under 5% CO2 for 24 hours, and then treated with the compounds listed in Examples which were diluted in various concentrations. Subsequently, IL-6 was added to each well with a final concentration of 10 ng/mL. Upon completion of the treatment with the compounds and IL-6, the cells were cultured at 37° C., under 5% CO2 for 24 hours. The plates were observed under microscope and drug precipitation and particular findings were investigated and recorded.
as §1, with “one of the two plates.” for “one of two plates.”, “then, 20 μL, of passive” for “then, 20 μL of passive”
as §2

Structure (SMILES)	IC50 (STAT1)	IC50 (STAT3)
CC(C)c1ccc(C(C)(C)c2cc(Cl)cc(NC(=O)c3cc4cc(C(C)(C)S(C)(=O)=O)ccc4s3)c2)s1 [Example 28, N-(3-chloro-5-(2-(5-isopropylthiophen-2-yl)propan-2-yl)phenyl)-5-(2-(methylsulfonyl)propan-2-yl)benzo[b]thiophene-2-carboxamide]	> 50 µM	0.0085 µM
COc1ccc(C(C)(C)c2cc(Cl)cc(NC(=O)c3cc4cc(C(C)(C)S(C)(=O)=O)ccc4s3)c2)s1 [Example 29, N-(3-chloro-5-(2-(5-methoxythiophen-2-yl)propan-2-yl)phenyl)-5-(2-(methylsulfonyl)propan-2-yl)benzo[b]thiophene-2-carboxamide]	> 50 µM	0.0041 µM
COc1sccc1C(C)(C)c1cc(Cl)cc(NC(=O)c2cc3cc(C(C)(C)S(C)(=O)=O)ccc3s2)c1 [Example 30, N-(3-chloro-5-(2-(2-methoxythiophen-3-yl)propan-2-yl)phenyl)-5-(2-(methylsulfonyl)propan-2-yl)benzo[b]thiophene-2-carboxamide]	> 50 µM	0.0013 µM
CC(C)(c1ccc(Cl)cc1)c1cc(Cl)cc(NC(=O)c2cc3ccc(C(C)(C)S(C)(=O)=O)cc3[nH]2)c1 [Example 35, N-(3-chloro-5-(2-(4-chlorophenyl)propan-2-yl)phenyl)-6-(2-(methylsulfonyl)propan-2-yl)-1H-indole-2-carboxamide]	> 50 µM	0.1 µM
CC(C)(c1ccc2cc(C(=O)Nc3cc(Cl)cc(Oc4ccc(Cl)cc4)c3)[nH]c2c1)S(C)(=O)=O [Example 40, N-(3-chloro-5-(4-chlorophenoxy)phenyl)-6-(2-(methylsulfonyl)propan-2-yl)-1H-indole-2-carboxamide]	> 50 µM	0.21 µM
CC(C)(c1cc2cc(C(=O)Nc3cc(Cl)cc(Oc4ccc(Cl)cc4)c3)sc2cn1)S(C)(=O)=O [Example 50, N-(3-chloro-5-(4-chlorophenoxy)phenyl)-5-(2-(methylsulfonyl)propan-2-yl)thieno[2,3-c]pyridine-2-carboxamide]	> 50 µM	0.078 µM
CC(C)(c1ccc2sc(C(=O)Nc3cc(Oc4ccc(Cl)cc4)cc(N4CCC4)c3)cc2c1)S(C)(=O)=O [Example 59, N-(3-(azetidin-1-yl)-5-(4-chlorophenoxy)phenyl)-5-(2-(methylsulfonyl)propan-2-yl)benzo[b]thiophene-2-carboxamide]	> 50 µM	0.31 µM
CC(C)(c1ccc2sc(C(=O)Nc3cc(Cl)cc(Oc4ccc(Cl)nc4)c3)cc2c1)S(C)(=O)=O [Example 60, N-(3-chloro-5-((6-chloropyridin-3-yl)oxy)phenyl)-5-(2-(methylsulfonyl)propan-2-yl)benzo[b]thiophene-2-carboxamide]	> 50 µM	0.12 µM
CC(C)(c1ccc2sc(C(=O)Nc3cc(Cl)cc(Oc4ccc(Cl)cn4)c3)cc2c1)S(C)(=O)=O [Example 61, N-(3-chloro-5-((5-chloropyridin-2-yl)oxy)phenyl)-5-(2-(methylsulfonyl)propan-2-yl)benzo[b]thiophene-2-carboxamide]	> 50 µM	0.08 µM

Second part, the molecule after the results:

IC50 (STAT1)	IC50 (STAT3)	Structure (SMILES)
> 50 µM	0.0076 µM	CCOc1cc(OC(F)(F)F)cc(C(C)(C)c2cc(Cl)cc(NC(=O)c3cc4cc(C(C)(C)S(C)(=O)=O)ccc4s3)c2)c1 [Example 1, N-(3-chloro-5-(2-(3-ethoxy-5-(trifluoromethoxy)phenyl)propan-2-yl)phenyl)-5-(2-(methylsulfonyl)propan-2-yl)benzo[b]thiophene-2-carboxamide]
> 50 µM	0.008 µM	CCCOc1cc(OC(F)(F)F)cc(C(C)(C)c2cc(Cl)cc(NC(=O)c3cc4cc(C(C)(C)S(C)(=O)=O)ccc4s3)c2)c1 [Example 2, N-(3-chloro-5-(2-(3-propoxy-5-(trifluoromethoxy)phenyl)propan-2-yl)phenyl)-5-(2-(methylsulfonyl)propan-2-yl)benzo[b]thiophene-2-carboxamide]
> 50 µM	0.0098 µM	COc1cc(OC(F)(F)F)cc(C(C)(C)c2cccc(NC(=O)c3cc4cc(C(C)(C)S(C)(=O)=O)ccc4s3)c2)c1 [Example 3, N-(3-(2-(3-methoxy-5-(trifluoromethoxy)phenyl)propan-2-yl)phenyl)-5-(2-(methylsulfonyl)propan-2-yl)benzo[b]thiophene-2-carboxamide]
> 50 µM	0.0091 µM	CC(C)(c1cc(Br)cc(NC(=O)c2cc3cc(C(C)(C)S(C)(=O)=O)ccc3s2)c1)c1cc(OC(F)(F)F)cc(OC(F)(F)C(F)F)c1 [Example 4, N-(3-bromo-5-(2-(3-(1,1,2,2-tetrafluoroethoxy)-5-(trifluoromethoxy)phenyl)propan-2-yl)phenyl)-5-(2-(methylsulfonyl)propan-2-yl)benzo[b]thiophene-2-carboxamide]
> 50 µM	0.028 µM	CC(C)(c1cc(Cl)cc(NC(=O)c2cc3cc(C(C)(C)S(C)(=O)=O)ccc3s2)c1)c1cc(OC(F)(F)F)cc(OC(F)(F)C(F)F)c1 [Example 5, N-(3-chloro-5-(2-(3-(1,1,2,2-tetrafluoroethoxy)-5-(trifluoromethoxy)phenyl)propan-2-yl)phenyl)-5-(2-(methylsulfonyl)propan-2-yl)benzo[b]thiophene-2-carboxamide]
> 50 µM	0.019 µM	COc1cc(NC(=O)c2cc3cc(C(C)(C)S(C)(=O)=O)ccc3s2)cc(C(C)(C)c2cc(OC)cc(OC(F)(F)F)c2)c1 [Example 6, N-(3-methoxy-5-(2-(3-methoxy-5-(trifluoromethoxy)phenyl)propan-2-yl)phenyl)-5-(2-(methylsulfonyl)propan-2-yl)benzo[b]thiophene-2-carboxamide]
> 50 µM	0.0088 µM	COc1cc(OC(F)(F)F)cc(C(C)(C)c2cc(Cl)cc(NC(=O)c3cc4cc(C(C)(C)S(C)(=O)=O)ccc4s3)c2)c1 [Example 7, N-(3-chloro-5-(2-(3-methoxy-5-(trifluoromethoxy)phenyl)propan-2-yl)phenyl)-5-(2-(methylsulfonyl)propan-2-yl)benzo[b]thiophene-2-carboxamide]
> 50 µM	0.061 µM	CC(C)(c1cc(Cl)cc(NC(=O)c2cc3cc(C(C)(C)S(C)(=O)=O)ccc3s2)c1)c1cc(OCCN2CCOCC2)cc(OC(F)(F)F)c1 [Example 8, N-(3-chloro-5-(2-(3-(2-morpholinoethoxy)-5-(trifluoromethoxy)phenyl)propan-2-yl)phenyl)-5-(2-(methylsulfonyl)propan-2-yl)benzo[b]thiophene-2-carboxamide]
> 50 µM	0.067 µM	CC(C)(c1ccc(F)cc1)c1cc(Br)cc(NC(=O)c2cc3cc(C(C)(C)S(C)(=O)=O)ccc3s2)c1 [Example 20, N-(3-bromo-5-(2-(4-fluorophenyl)propan-2-yl)phenyl)-5-(2-(methylsulfonyl)propan-2-yl)benzo[b]thiophene-2-carboxamide]
> 50 µM	0.065 µM	CC(C)(c1ccc(Cl)cc1)c1cc(Cl)cc(NC(=O)c2cc3cc(C(C)(C)S(C)(=O)=O)ncc3s2)c1 [Example 26, N-(3-chloro-5-(2-(4-chlorophenyl)propan-2-yl)phenyl)-5-(2-(methylsulfonyl)propan-2-yl)thieno[2,3-c]pyridine-2-carboxamide]
